Data on three molecules can be found in US20170260285A1, “METHODS FOR TREATING CANCER” (UNIVERSITY OF IOWA RESEARCH FOUNDATION, priority 2014, published 2017).

The test system of data set [1] is Cal-27 HNSCC cells. In words: IL-6 secretion by ELISA in Cal-27 cells. As to conditions: erlotinib 5 μM, 48 h vs DMSO, ELISA. It counts as cell-based, human.
Text: (§1) Cal-27 and FaDu human head and neck squamous carcinoma (HNSCC) cells were obtained from the American Type Culture Collection (ATCC, Manassas, Va.). SQ20B HNSCC cells (16) were a gift from Dr. Anjali Gupta (Department of Radiation Oncology, The University of Iowa). All HNSCC cell lines are EGFR positive and are sensitive to EGFR inhibitors. All cell lines were authenticated by the ATCC for viability (before freezing and after thawing), growth, morphology and isoenzymology. Cells were stored according to the supplier's instructions and used over a course of no more than 3 months after resuscitation of frozen aliquots. Cultures were maintained in 5% CO2 and air humidified in a 37° C. incubator.
(§2) Erlotinib (ERL; Tarceva) and anakinra (ANA; Kineret) were obtained from the inpatient pharmacy at the University of Iowa Hospitals and Clinics. Drugs were added to cells at final concentrations of 5 μM ERL and 10 ng/mL or 50 ng/mL ANA. Human IgG and […] (DMSO) were used as controls and were obtained from Sigma Aldrich. Human IL-1α, IL-1β, and IL-18Rα neutralizing antibodies were obtained from R&D Systems and were used at a concentration of 0.5 μg/mL. Recombinant human IL-1α was obtained from Life Technologies and administered at a concentration of 1 ng/mL. Ac-Y-VAD-cho, a caspase-1 inhibitor (CalBioChem), was suspended in DMSO and added at a concentration of […], a pan-caspase inhibitor (Promega) was diluted in DMSO and added at a concentration of 20 μM. TLR agonists were used at the following concentrations: Pam3CSK4 (200ng/mL), FSL-1 (100 ng/mL), Poly I:C (20 μg/mL), LPS (200 ng/mL), Flagellin (200 ng/mL), Gardiquimod (1 μg/mL), CL075 (1 μg/mL), and E. coli DNA (1 μg/mL). All TLR agonists were obtained from InvivoGen. The required volume of each drug was added directly to complete cell culture media on cells to achieve the indicated final concentrations.
(§3) Levels of IL-6, IL-1α and IL-1β of treated cells were determined by ELISA. The culture media of the treated cells were harvested and each cytokine was detected according to the manufacturer's protocol using the Human Quantikine ELISA Kits (R&D Systems, Minneapolis, Minn.).
as §1, with “(20)” for “(16)”
(§4) Erlotinib (ERL; Tarceva), anakinra (ANA; Kineret) and N-acetyl cysteine (NAC; Acetadote) were obtained from the inpatient pharmacy at the University of Iowa Hospitals and Clinics. Drugs were added to cells at final concentrations of 5 μM ERL, 10 ng/mL or 50 ng/mL ANA and 20 mM NAC. Human IgG and […] (DMSO) were used as controls and were obtained from Sigma Aldrich. Pegylated catalase (CAT; Sigma Aldrich) was used at a final concentration of 100 U/mL. Human IL-1α, IL-1β, and IL-18Ra neutralizing antibodies were obtained from R&D Systems and were used at a concentration of 0.5 μg/mL. Recombinant human IL-1α was obtained from Life Technologies and administered at a concentration of 1 ng/mL. Ac-Y-VAD-cho (CalBioChem) was suspended in DMSO and used at 5 μM. Z-VAD-fmk (Promega) was diluted in DMSO and used at 20 μM. TLR agonists were used at the following concentrations: Pam3CSK4 (200 ng/mL), FSL-1 (100 ng/mL), Poly I:C (20 μg/mL), LPS (200 ng/mL), Flagellin (200 ng/mL), Gardiquimod (1 μg/mL), CL075 (1 μg/mL), and E. coli DNA (1 μg/mL). All TLR agonists were obtained from InvivoGen. […]
(In general: An ELISA detects its analyte on a solid surface through an enzyme-linked reagent.)

Data set [2] has as its system SQ20B HNSCC cells. In words: IL-1α release by ELISA in SQ20B cells. It counts as cell-based, human. Particulars: for IL-1α after erlotinib treatment over time: erlotinib 5 μM, indicated time points, ELISA; for baseline IL-1α levels: agent 1 h then DMSO 48 h; for erlotinib-induced IL-1α release: agent 1 h then erlotinib 5 μM 48 h. The procedure:
as §2, §3
(§5) Erlotinib (ERL; Tarceva), anakinra (ANA; Kineret) and N-acetyl cysteine (NAC; Acetadote) were obtained from the inpatient pharmacy at the University of Iowa Hospitals and Clinics. Drugs were added to cells at final concentrations of 5 μM ERL, 10 ng/mL or 50 ng/mL ANA and 20 mM NAC. Human IgG and […] (DMSO) were used as controls and were obtained from Sigma Aldrich. Pegylated catalase (CAT; Sigma Aldrich) was used at a final concentration of 100 U/mL. Human IL-1α, IL-1β, and IL-18Ra neutralizing antibodies were obtained from R&D Systems and were used at a concentration of 0.5 μg/mL. Recombinant human IL-1α was obtained from Life Technologies and administered at a concentration of 1 ng/mL. Ac-Y-VAD-cho (CalBioChem) was suspended in DMSO and used at 5 μM. Z-VAD-fmk (Promega) was diluted in DMSO and used at 20 μM. TLR agonists were used at the following concentrations: Pam3CSK4 (200 ng/mL), FSL-1 (100 ng/mL), Poly I:C (20 μg/mL), LPS (200 ng/mL), Flagellin (200 ng/mL), Gardiquimod (1 μg/mL), CL075 (1 μg/mL), and E. coli DNA (1 μg/mL). All TLR agonists were obtained from InvivoGen. The required volume of each drug was added directly to complete cell culture media on cells to achieve the indicated final concentrations.
(§6) Levels of IL-6, IL-1α and IL-1β of treated cells were determined by ELISA. The culture media of the treated cells were harvested and each cytokine was detected according to the manufacturer's protocol using Human Quantikine ELISA Kits (R&D Systems, Minneapolis, Minn.).

Data set [3] has as its system Cal-27 cells. In words: TLR gene expression by RTPCR in Cal-27 cells. It counts as cell-based, human.
Description: (§7) Total RNA was extracted from cells after indicated time points using RNeasy.Plus mini kit (Qiagen). Conversion of RNA into cDNA was accomplished with the iScript cDNA synthesis kit (Bio-Rad) and a thermocycler with the following conditions: 5 minutes at 25° C., 30 minutes at 42° C., and 5 minutes at 85° C. Subsequent RTPCR analysis was performed in a 96-well optical plate with each well containing 6 μL of cDNA, 7.5 μL of SyBr Green Universal SuperMix (Bio-Rad), and 1.5 μof oligonucleotide primers (sense and antisense; 4 μM) for a total reaction volume of 15 μL. Oligonucleotide primers for human genes were obtained from IDT (Iowa City, Iowa). RTPCR was performed on ABI PRISM Sequence Detection System (model 7000, Applied Biosystems) with the following protocol: 95° C. for 15 seconds (denaturing) and 60° C. for 60 seconds (annealing), repeated for 40 cycles. Threshold cycle (CT) values for analyzed genes (in duplicate) were normalized as compared to GAPDH (cell lines) or 18S (human samples) CT values. Relative abundance was calculated as 0.5̂(ΔCT), with OCT being the CT value of the analyzed gene minus the CT value of the reference gene (GAPDH or 18S).
In data set [4] the test system is Cal-27 HNSCC cells. In words: IL-1α release by ELISA in Cal-27 cells. It counts as cell-based, human. Particulars: for IL-1α after erlotinib treatment over time: erlotinib 5 μM, indicated time points, ELISA; for baseline IL-1α levels: agent 1 h then DMSO 48 h; for erlotinib-induced IL-1α release: agent 1 h then erlotinib 5 μM 48 h. The protocol: as §2, §3, §5, §6

For data set [5], the system named is HNSCC tumor cell lines. Particulars: previous studies (ref. 10), cited from earlier work.
Data set [6] concerns SQ20B xenograft tumors. The data set can be described thus: HNSCC xenograft tumor growth in nude mice. The class given is in vivo, athymic nu/nu mice.
Text: Male and female athymic-nu/nu mice (4-5 weeks old) were purchased from Harlan Laboratories (Indianapolis, Ind.). Mice were housed in a pathogen-free barrier room in the Animal Care Facility at the University of Iowa and handled using aseptic procedures. All procedures were approved by the IACUC committee of the University of Iowa and conformed to the guidelines established by the NIH. Mice were allowed at least 3 days to acclimate prior to beginning experimentation, and food and water were made freely available. Tumor cells were inoculated into nude mice by subcutaneous injection of 0.1 mL aliquots of saline containing 2×10^6 SQ20B cells into the right flank using 26-gauge needles.
Mice started drug treatment 1 week after tumor inoculation. For the MyD88 knockdown experiments, female mice were randomized into 2 treatment groups and orally administered either water or 12.5 mg/kg erlotinib (ERL) daily. For the IL-1α neutralization experiments, male and female mice were randomized into 4 treatment groups as follows. Control group: Mice were administered water orally daily and 1 mg/kg IgG i.p once per week. […] Mice were evaluated daily and tumor measurements taken three times per week using Vernier calipers. Tumor volumes were calculated using the formula: tumor volume=(length×width^2)/2 where the length was the longest dimension, and width was the dimension perpendicular to length. […]
Data set [7] has as its system SQ20B cells. In words: TLR gene expression by RTPCR in SQ20B cells. It counts as cell-based, human.
Description: as §7
For data set [8], the system named is SQ20B and Cal-27 HNSCC cells. The data set can be described thus: IL-1β secretion by ELISA after erlotinib. The class given is cell-based, human. Particulars: erlotinib 5 μM, any time point. The protocol:
as §2, with “TLR agonists were used at the following concentrations: Pam3CSK4 (200ng/mL), FSL-1 (100 ng/mL), Poly I:C (20 μg/mL), LPS (200 ng/mL), Flagellin (200 ng/mL), Gardiquimod (1 μg/mL), CL075 (1 μg/mL), and E. coli DNA (1 μg/mL). All TLR agonists were obtained from InvivoGen. The required volume of each drug was added directly to complete cell culture media on cells to achieve the indicated final concentrations.” left out
Levels of IL-6, IL-1α and IL-1β of treated cells were determined by ELISA. The culture media of the treated cells were harvested and each cytokine was detected according to the manufacturer's protocol using the Human Quantikine ELISA Kits (R&D Systems, Minneapolis, Minn.). […]
as §6

Data set [9] concerns SQ20B HNSCC cells. In words: IL-6 secretion by ELISA in SQ20B cells. The class given is cell-based, human. As to conditions: erlotinib 5 μM, 48 h vs DMSO, ELISA.
Text: as §1, §2, §3
as §1, with “(20)” for “(16)”
as §4

Data set [10] concerns genes related to inflammation and innate immunity. Particulars: one other study (ref. 25); cited from earlier work.
Data set [11] deals with SQ20B cells. In words: Clonogenic survival assay. It counts as cell-based, human. Particulars: Z-VAD 20 μM with erlotinib. The procedure:
Clonogenic survival was determined as previously described (17). Individual assays were performed with multiple dilutions with at least four cloning dishes per data point, repeated in at least 3 separate experiments. Tumor cell implantation: Female 4-5 week old athymic-nu/nu nude mice were purchased from Harlan Laboratories (Indianapolis, IN). Mice were housed in a pathogen-free barrier room in the Animal Care Facility at the University of Iowa and handled using aseptic procedures. All procedures were approved by the IACUC committee of the University of Iowa and conformed to the guidelines established by the NIH. Mice were allowed at least 3 days to acclimate prior to beginning experimentation, and food and water were made freely available. Tumor cells (shCON or shMyD88) were inoculated into nude mice by subcutaneous injection of 0.1 mL aliquots of saline containing 2×10^6 FaDu cells into the right flank using 26-gauge needles.
Clonogenic survival was determined as previously described (22). Individual assays were performed with multiple dilutions with at least four cloning dishes per data point, repeated in at least 3 separate experiments.

Data set [12] deals with SQ20B and Cal27 cells. It counts as cell-based. The procedure: To determine whether cell death is responsible for IL-1α release, we used Z-VAD-fmk, a pan-caspase inhibitor, to prevent cell death. We also tested Ac-Y-VAD-cho, caspase-1 inhibitor, to assess inflammasome involvement. After testing various combinations of these inhibitors, we found an optimal concentration of 20 μM Z-VAD and 5μM Y-VAD. […] To confirm that the pan-caspase inhibitor was effectively blocking cell death, we performed a clonogenic assay with erlotinib- and Z-VAD-treated cells in SQ20B cells.

The mark [13] stands for this setting: ERL 5 μM 48 h, absolute levels very low.
[14] abbreviates: listed as pan-caspase inhibitor.

“Also recorded” adds a separate entry of the source. Read-outs that look alike come from different tables or passages of the source. Residues, ends and D or L forms follow the SMILES beside them. *: point of attachment. Cbz = O=C(OCc1ccccc1)*; CH2F = FC*

Turning to `C#Cc1cccc(Nc2ncnc3cc(OCCOC)c(OCCOC)cc23)c1` [erlotinib, Erlotinib], the “IL-6 production/secretion with erlotinib” value in data set [1] and in data set [9] was “increases IL-6 production” each time. For the same molecule, the “IL-1α after erlotinib treatment over time” value is on record as “steadily increased across all time points” in data set [2], “increased across all time points” in [2] (listed as ERL), “steadily increased across all time points” in data set [4] and “increased across all time points” in data set [4] (listed as ERL). For the same molecule, the TLR10 expression result in [3] (setting [13]) is recorded as “increased”. Further, the “TLR mRNA expression” value in data set [3] (erlotinib) and in data set [7] (erlotinib) was “did not affect” each time. The “IL-6 expression/secretion in HNSCC cell lines treated with EGFRIs” value in data set [5] is reported as “significant upregulation”; in data set [5] (listed as ERL), “induces the secretion of IL-6”. Moreover, in data set [6] (EGFRI combined with IL-1α blockade (neutralizing IL-1α antibody)), the “anti-tumor activity in vivo with IL-1α blockade” value was “significantly increased”. The “tumor growth of MyD88-deficient xenografts treated with erlotinib” value in data set [6] (shMyD88 #2 and #9 vs erlotinib-treated control xenografts, 12.5 mg/kg orally daily, three weeks) is recorded as “reduced tumor growth”. Also, the TLR8 expression entry in data set [7] (setting [13]) is listed as “increased”. For the same molecule, the “secreted IL-1β after erlotinib treatment” value in data set [8] is reported as “undetectable; also recorded: unable to detect”; in data set [8] (listed as ERL), “not IL-1β was detectable”.

`COc1cc2ncnc(Nc3cccc(Br)c3)c2cc1OC` [PD153035]: the “genes related to inflammation and innate immunity” value in data set [10] was “upregulated”.

With `COC(=O)C[C@H](NC(=O)[C@H](C)NC(=O)[C@@H](NC(=O)OCc1ccccc1)C(C)C)C(=O)CF` [Z-VAD-fmk] (Cbz-Val-Ala-Asp(OMe)-CH2F), the erlotinib-induced cell death entry in [11] is “blocked”; in data set [11] (listed as Z-VAD) it was “significantly blocked”; in data set [11] (listed as ZVAD) it was “blocked”; in [11] (setting [14]), “blocked”. For the same molecule, the “baseline IL-1α levels” value in [2] was “significantly reduced”; in [2] (listed as Z-VAD), “significantly reduce”; in data set [4] it was “significantly reduced”; in [4] (listed as Z-VAD), “significantly reduce”. The “erlotinib-induced IL-1α release” value is “significantly reduced” in [2]; “significantly reduce” in [2] (listed as Z-VAD); “blocked” in data set [2] (listed as ZVAD); “blocked” in data set [2] (setting [14]); “significantly reduced” in data set [4]; “significantly reduce” in [4] (listed as Z-VAD). Moreover, the “erlotinib-induced IL-1α release” value in data set [4] (listed as ZVAD) and in data set [4] (setting [14]) was “blocked” each time. Moreover, the “highest dose that did not result in toxicity (optimal concentration)” value in data set [12] is 20 µM.
